Holding throughout (format): cell-based, human
The subject of one experiment is P4E6 cell line. Briefly: Alamar Blue cell viability, P4E6. The conditions noted are these: for EC50: 72 h exposure, Alamar Blue. From the text: (§1) Five different prostate cell lines, including normal cell line PNT2-C2 (Merck), benign prostatic hyperplasia cell line BPH1 (gift from Simon W. Hayward, Evanston, IL, USA), and cancer cell lines including PC-3 (derived from prostate cancer bone metastasis) (ATCC), LNCaP (derived from prostate cancer lymph node metastasis) (ATCC), and P4E6 (derived from localized prostate cancer) (derived in York and available from European Collection of Authenticated Cell Cultures ECACC), as well as two primary malignant cell lines, H796/19 and H798/19 (both Gleason 7 grade cancers) (obtained in York with ethical permission, REC ref 07/H1304/121) were used in the study. Culturing of commercially available cell lines and processing and culturing of primary cells were carried out as previously described. Primary cells were typically used at a passage <5 since they have finite growth and the intention is to maintain them as close to the original tumor as possible.
(§2) AlamarBlue quantitatively measures cell viability since actively metabolizing cells can reduce its active ingredient resazurin to a fluorescent molecule (resorufin) which can be subsequently analyzed on a plate reader. Cells were plated in 96 well plates at a density of 5000 cells/well and left to adhere overnight in 200 μL media. The following day cells were treated with 9 different concentrations of the test drugs in triplicate, ranging from 10^−5 M to 10^−13 M. After 72 h exposure 20 μL of AlamarBlue reagent (diluted 1:10 in the corresponding media for each cell line) was added to each well and incubated at 37 °C for 2 h. Fluorescence intensity was determined using a microplate reader (Polarstar Optima, BMG Labtech) at excitation/emission values 73 of 544/590 nm. EC50 values were calculated using the software GraphPad Prism Version 6 (San Diego, CA, USA).
A general note: The colour change of resazurin is a common sign of viable cells or microbes.

For experiment [1], the system named is PC3 cell line. The experiment can be described thus: Alamar Blue cell viability, PC3. The settings on record: for EC50: 72 h exposure, Alamar Blue.
Excerpt: as §1, §2

For the next experiment, the system named is LNCaP cell line. Briefly: Alamar Blue cell viability, LNCaP. The settings on record: 72 h exposure.
Excerpt: as §1, §2

In experiment [2] the test system is PNT2-C2 normal prostate epithelial cell line. The experiment can be described thus: Alamar Blue cell viability, PNT2-C2. The conditions noted are these: 72 h exposure.
Excerpt: as §1, §2

Experiment [3] concerns BPH1 benign prostatic hyperplasia cell line. The experiment can be described thus: Alamar Blue cell viability, BPH1.
Excerpt: as §1, §2

In experiment [4] the test system is PC3 cell line. Briefly: Colony-forming assay, PC3. The conditions noted are these: 72 h exposure at EC50, EC50×2, EC50×5. The method, then: PNT2-C2, BPH1 and PC3 cell lines were plated in 12-well plates with a density of 4 × 10^4 cells/well and left to adhere overnight in 1.00 mL media. The following day cells were treated with 3 different concentrations of the test drugs, based on the EC50 values in cell viability (EC50, EC50×2, EC50×5). After 72 h of exposure, cells were counted and plated into 12 well plates in triplicate with a density of 100 cells/well. At day 8, cells were stained with crystal violet (1% (w/v) crystal violet, 10% (v/v) ethanol in PBS). Colonies consisting of >32 cells were counted (representative of 5 population doublings).

Experiment [5] has as its system ALDH1A3 gene expression in primary prostate epithelial cell cultures. The experiment can be described thus: qPCR ALDH1A3 gene expression after atRA treatment. The conditions noted are these: atRA 100 nM, 72 hours; 1xBPH, 1xBPH-PIN, 2x PCa primary cultures; no statistical test. Here is the method: (§3) RNA extraction was carried out using the RNeasy Mini Kit (Qiagen, Hilden, Germany). The concentration and quality of the eluted RNA were determined using a NanodropTM2000 (Thermo Fisher Scientific, Waltham, MA, USA) spectrophotometer and measuring the 260/280 ratio. Total RNA of 50–2000 ng was reverse transcribed into single-stranded cDNA using the High Capacity cDNA Reverse Transcription Kit (Thermo Fisher Scientific, Waltham, MA, USA). Once the reaction finished, samples were purified using the QIAquick PCR Purification Kit (Qiagen). The concentration and quality of the cDNA was measured by using the NanodropTM2000 spectrophotometer. qPCR was carried out in 25 μL total PCR reaction using the TaqMan Universal PCR Master Mix (Applied Biosystems, Thermo Fisher Scientific, Waltham, MA, USA). The PCR reaction consisted of 12.5 μL of 2× master mix, 1.25 μL of 20× TaqMan Gene Expression Assay Mix (Supplementary Table S1), and 11.25 μL cDNA diluted in dH2O. A 96-well MicroAmp Optical plate (Applied Biosystems) was used and all reactions were run in triplicates. Primers used were obtained from TaqMan Gene Expression Assays (Thermo Fisher Scientific, Waltham, MA, USA). […] The gene expression level relative to internal control RPLP0 was calculated using the formula 2^−∆CT and the fold change in gene expression was worked out using the 2^−∆∆CT method. […]

For experiment [6], the system named is ALDH1A1 gene expression in primary prostate epithelial cell cultures. Briefly: qPCR ALDH1A1 gene expression after atRA treatment. The conditions noted are these: atRA 100 nM, 72 hours; 1xBPH, 1xBPH-PIN, 2x PCa primary cultures; no statistical test. Here is the method:
as §3

Entries after “also recorded” stand apart in the source; their conditions may differ.

As for `c1ccc(-c2ccc3nc(-c4ccccc4)cn3c2)cc1` [Compound 3a], the EC50 – broadly, the concentration needed to bring the measured effect to its halfway point – in the experiment with P4E6 cell line was determined as 0.0607 µM; in the experiment on PC3 cell line [1], 0.239 µM; with LNCaP cell line, 0.315 µM; in experiment [2], 0.423 µM; in experiment [3] (72 h exposure) it was 0.113 µM.
As to `Fc1ccc(-c2ccc3nc(-c4ccccc4)cn3c2)cc1` [Compound 3b, 6-(4-fluorophenyl)-2-phenylimidazo [1,2-a]pyridine], the EC50 with P4E6 cell line (Homo sapiens) turned out to be 0.00404 µM; with PC3 cell line [1] (Homo sapiens, PC-3), 0.0709 µM; with LNCaP cell line (Homo sapiens, LNCaP) it was 0.24 µM; in experiment [2] (Homo sapiens, Epithelial cell), 0.217 µM; in experiment [3] (Homo sapiens, BPH-1, 72 h exposure), 0.0415 µM. Further, in the experiment on P4E6 cell line (result in words), the “antiproliferative activity against P4E6” value is “antiproliferative activity in the nanomolar range; also recorded: nanomolar efficacy”. Further, the “antiproliferative activity against PC3” value in the experiment on PC3 cell line [1] (result in words) is on record as “antiproliferative activity in the nanomolar range; also recorded: nanomolar efficacy”. In addition, in the experiment on PC3 cell line [4], the “colony-forming efficiency PC3” value was “inhibitory efficacy against PC3 colony-forming efficiency”.
For `Clc1ccc(-c2ccc3nc(-c4ccccc4)cn3c2)cc1` [Compound 3c], the EC50 in the experiment on P4E6 cell line was determined as 0.0334 µM; with PC3 cell line [1], 0.322 µM; in the experiment with LNCaP cell line it was 0.323 µM; in experiment [2] it was 0.325 µM; in experiment [3] (72 h exposure) it was 0.416 µM.
Regarding `N#Cc1cccc(-c2ccc3nc(-c4ccccc4)cn3c2)c1` [Compound 3d], the EC50 is 0.44 µM in the experiment on P4E6 cell line, 7.18 µM with LNCaP cell line, 1.72 µM in experiment [2] and 0.351 µM in experiment [3] (72 h exposure). For the same molecule, the “selectivity of PC3 colony forming inhibition versus PNT2-C2 or BPH-1” value in the experiment on PC3 cell line [4] is recorded as “selectively inhibited PC3 colony forming more strongly than PNT2-C2 or BPH-1; also recorded: selective inhibition of PC3 colony formation”.
Consider `CC1=C(/C=C/C(C)=C/C=C/C(C)=C/C(=O)O)C(C)(C)CCC1` [atRA], for which, in experiment [5], the “gene expression for ALDH1A3” value is “increase”. Moreover, in experiment [6], the “gene expression for ALDH1A1” value was “no apparent effect”.

These data come from paper PMC7761903, “Aldehyde Dehydrogenases and Prostate Cancer: Shedding Light on Isoform Distribution to Reveal Druggable Target” (Biomedicines, 2020).
